The target in one test is T1, Kelch domain of KLHL20 (Homo sapiens, UniProt Q9Y2M5).
T1 construct: human KLHL20 (Uniprot Q9Y2M5 isoform 1, M303-E605); hexahistidine tag with TEV cleavage site (N); made in house; host or cells: E. coli BL21(DE3)R3-pRARE2
T1 sequence (Q9Y2M5 303-605): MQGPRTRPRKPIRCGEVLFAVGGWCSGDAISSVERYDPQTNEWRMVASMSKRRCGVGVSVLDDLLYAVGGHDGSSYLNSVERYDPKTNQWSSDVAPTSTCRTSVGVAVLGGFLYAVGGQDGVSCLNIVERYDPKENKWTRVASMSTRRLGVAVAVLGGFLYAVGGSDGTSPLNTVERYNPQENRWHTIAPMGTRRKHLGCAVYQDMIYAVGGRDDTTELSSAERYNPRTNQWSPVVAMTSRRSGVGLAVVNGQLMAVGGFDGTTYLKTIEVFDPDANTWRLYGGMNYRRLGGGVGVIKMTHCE
The test can be described thus: Surface plasmon resonance, immobilized KLHL20. Conditions: SPR, BIACORE S200, CM5 chip, amine coupling, 25°C, HBS-P buffer, 30 μL/min, peptide 1.6-200 μM, one-site steady-state affinity; representative of two independent experiments; N.B., no binding detected. A general note: In SPR one partner is held on a chip, and binding of the other changes the refractive index at the surface.

The subject of the next test is Kelch domain of KEAP1. As to conditions: ref Tong et al., 2006; cited from earlier work. From the text:
However, this is weaker than the low nanomolar binding observed for NRF2 interaction with the Kelch domain of KEAP1 ([Tong et al., 2006]). These differences may reflect the strict regulation of NRF2, which ensures its constitutive degradation, or the requirement for substrate co-adaptors as found for KLHL12 ([McGourty et al., 2016]). Alternatively, t ...

Procedure for Kelch domain of KLHL20: (C) For SPR experiments, KLHL20 and KLHL3 Kelch domains were immobilized by amine coupling on different flow cells of a CM5 sensor chip. Indicated DAPK1 peptides were injected subsequently at concentrations of 1.6 μM, 3.1 μM, 6.2 μM, 12.5 μM, 25 μM, 50 μM, 100 μM, and 200 μM. Binding was monitored at a flow rate of 30 μL/min. […] Data were fitted using a steady-state affinity equation.
Assays were performed at 25°C using a BIACORE S200 (GE Healthcare) surface plasmon resonance (SPR) instrument. The Kelch domains of KLHL20 and KLHL3 were immobilized on sensor chip CM5 (GE Healthcare) using amine coupling. […] Binding was monitored using a flow rate of 30 μL/min. The peptide analytes were prepared in HBS-P buffer (GE Healthcare). Data reported were after reference flow cell signal subtraction. Data were analyzed by one-site steady-state affinity analysis using the Biacore S200 Evaluation software and the fitting equation Req=CRmax/KD+C+RI . (RI, bulk refractive index contribution; Rmax, maximum response; KD, dissociation constant; C, analyte concentration).

In the case of “SKLRELGRRDAADFLLKA [DAPK1 peptide spanning the C-terminal site residues 1,378–1,395]”, at Kelch domain of KLHL20, the “KD (μM), Immobilized Protein: KLHL20” value was “N.B”.

Take “NRF2: NRF2, interaction with the Kelch domain of KEAP1”: the “Binding affinity for KEAP1 Kelch domain” value with Kelch domain of KEAP1 was “low nanomolar”.

Values taken from article PMC6720452, “Structural Basis for Recruitment of DAPK1 to the KLHL20 E3 Ligase” (Structure(London, England:1993), 2019).
